Experimental data from patent US20100137313A1 (ASTRAZENECA AB, priority 2008, published 2010).

Each compound was assayed against S. pneumoniae Topoisomerase IV ATPase (ParE) (Streptococcus pneumoniae serotype 4, UniProt Q59961) (assay: S. pneumoniae Topoisomerase IV ATPase inhibition). Settings: values marked * are an average of two or more data points, read-out: % Inh (13 μM) of S. pneumoniae Topoisomerase IV ATPase.
Type: biochemical
How it was run: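 Malachite green/ammonium molybdate phosphate detection, A650. 1.25 nM ParE, 160 μM ATP, sheared salmon sperm DNA 5 μg/ml, 20 mM Tris pH 8.0, 8.0 mM MgCl2. Controls: 2% DMSO = 0%, 20 μM EDTA = 100% inhibition; IC50 over 10 concentrations.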

Sequence of S. pneumoniae Topoisomerase IV ATPase (ParE) (Q59961 whole entry): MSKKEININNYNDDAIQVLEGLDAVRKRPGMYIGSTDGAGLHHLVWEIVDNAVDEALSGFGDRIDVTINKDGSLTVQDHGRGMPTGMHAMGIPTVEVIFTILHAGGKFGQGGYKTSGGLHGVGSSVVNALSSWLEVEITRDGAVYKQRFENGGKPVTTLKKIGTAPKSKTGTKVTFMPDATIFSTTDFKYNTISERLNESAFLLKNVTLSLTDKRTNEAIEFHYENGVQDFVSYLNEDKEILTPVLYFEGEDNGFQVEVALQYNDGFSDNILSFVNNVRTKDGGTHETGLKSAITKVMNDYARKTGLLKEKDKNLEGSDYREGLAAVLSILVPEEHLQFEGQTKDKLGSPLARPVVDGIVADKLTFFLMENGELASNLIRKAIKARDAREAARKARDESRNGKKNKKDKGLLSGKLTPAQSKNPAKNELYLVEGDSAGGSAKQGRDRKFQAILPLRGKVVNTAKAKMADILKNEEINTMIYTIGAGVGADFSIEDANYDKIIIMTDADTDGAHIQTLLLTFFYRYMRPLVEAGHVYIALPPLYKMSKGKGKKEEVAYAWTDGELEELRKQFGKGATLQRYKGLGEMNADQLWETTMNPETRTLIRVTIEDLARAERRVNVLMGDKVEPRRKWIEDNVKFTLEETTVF

First: Cc1cc(C(F)(F)F)nn1-c1nc(Nc2ccc(F)c(Cl)c2)ncc1-c1ccc2c(c1)C(=O)NC2=O [Example 1042, 5-(2-(3-Chloro-4-fluorophenylamino)-4-(5-methyl-3-(trifluoromethyl)-1H-pyrazol-1-yl)pyrimidin-5-yl)isoindoline-1,3-dione]
Second: Cc1cc(C(F)(F)F)nn1-c1nc(Nc2ccc(F)c(Cl)c2)ncc1-c1cc(C(=O)NS(C)(=O)=O)c(=O)n(C)c1 [Example 1049, 5-(2-(3-Chloro-4-fluorophenylamino)-4-(5-methyl-3-(trifluoromethyl)-1H-pyrazol-1-yl)pyrimidin-5-yl)-1-methyl-N-(methylsulfonyl)-2-oxo-1,2-dihydropyridine-3-carboxamide]
The inhibition at 13 µM of the first is lower: 49% for the first, 99% for the second.

Compared with O=C(O)c1cncc(-c2cnc(Nc3ccc(F)c([N+](=O)[O-])c3)nc2N2CCOCC2)c1 [Example 436], O=C(O)c1cncc(-c2cnc(Nc3ccc(F)c(Cl)c3)nc2NCCCN2CCOCC2)c1 [Example 233, 5-[2-[(3-chloro-4-fluorophenyl)amino]-4-(3-morpholin-4-ylpropylamino)pyrimidin-5-yl]pyridine-3-carboxylic acid] is higher in inhibition at 13 µM: 69% for the first, 75.4% for the second.

Going from Fc1ccc(Nc2ncc(-c3cncnc3)c(-n3cccc3)n2)cc1Cl [Example 73, N-(3-chloro-4-fluorophenyl)-4-(1H-pyrrol-1-yl)-5,5′-bipyrimidin-2-amine] to Cc1cc(C)n(-c2nc(Nc3ccc(F)c(Cl)c3)ncc2-c2cncnc2)n1 [Example 82, N-(3-chloro-4-fluorophenyl)-4-(3,5-dimethyl-1H-pyrazol-1-yl)-5,5′-bipyrimidin-2-amine], the inhibition at 13 µM falls from 89.6% to 80.1%.

CON(C)C(=O)c1cccc(-c2cnc(Nc3ccc(F)c(Cl)c3)nc2-n2ccc(C(F)(F)F)n2)c1 [Example 1149, 3-(2-(3-chloro-4-fluorophenylamino)-4-(3-(trifluoromethyl)-1H-pyrazol-1-yl)pyrimidin-5-yl)-N-methoxy-N-methylbenzamide] and O=C(O)[C@H]1CCCN1c1cccc(-c2cnc(Nc3ccc(F)c(Cl)c3)nc2-n2ccc(C(F)(F)F)n2)c1 [Example 600, 1-(3-{2-[(3-chloro-4-fluorophenyl)amino]-4-[3-(trifluoromethyl)-1H-pyrazol-1-yl]pyrimidin-5-yl}phenyl)-D-proline] are the same in inhibition at 13 µM: 100% for the first, 100% for the second.

COc1cc(Nc2ncc(-c3cncc(C(=O)O)c3)c(-n3nc(C(F)(F)F)cc3C)n2)cc(C(F)(F)F)c1 [Example 913, 5-(2-(3-methoxy-5-(trifluoromethyl)phenylamino)-4-(5-methyl-3-(trifluoromethyl)-1H-pyrazol-1-yl)pyrimidin-5-yl)nicotinic acid] and COc1cc(Cl)cc(Nc2ncc(-c3cnc(OC)c(C(=O)O)c3)c(-n3nc(C(F)(F)F)cc3C)n2)c1 [Example 759, 5-{2-[(3-chloro-5-methoxyphenyl)amino]-4-[5-methyl-3-(trifluoromethyl)-1H-pyrazol-1-yl]pyrimidin-5-yl}-2-methoxypyridine-3-carboxylic acid] are the same in inhibition at 13 µM: 100% for the first, 100% for the second.

Cc1cc(C(F)(F)F)nn1-c1nc(Nc2ccc(F)c(Cl)c2)ncc1-c1cnc(OCCN2CCN(C)CC2)c(C(=O)O)c1 [Example 963, 5-(2-(3-chloro-4-fluorophenylamino)-4-(5-methyl-3-(trifluoromethyl)-1H-pyrazol-1-yl)pyrimidin-5-yl)-2-(2-(4-methylpiperazin-1-yl)ethoxy)nicotinic acid] and Cc1cc(C(F)(F)F)nn1-c1nc(Nc2ccc(F)c(Cl)c2)ncc1-c1cnc(OCCO)c(C(=O)O)c1 [Example 1134, 5-(2-(3-chloro-4-fluorophenylamino)-4-(5-methyl-3-(trifluoromethyl)-1H-pyrazol-1-yl)pyrimidin-5-yl)-2-(2-hydroxyethoxy)nicotinic acid] are the same in inhibition at 13 µM: 100% for the first, 100% for the second.

First: Fc1ccc(Nc2ncc(-c3cncnc3)c(NCCc3ccccn3)n2)cc1Cl [Example 44, N^2-(3-chloro-4-fluorophenyl)-N^4-(2-pyridin-2-ylethyl)-5-pyrimidin-5-ylpyrimidine-2,4-diamine]
Second: CC(C)(C)OC(=O)NCCNc1nc(Nc2ccc(F)c(Cl)c2)ncc1-c1cncnc1 [Example 41, tert-butyl N-[2-[[2-[(3-chloro-4-fluorophenyl)amino]-5-pyrimidin-5-ylpyrimidin-4-yl]amino]ethyl] carbamate]
The inhibition at 13 µM of the first is higher: 78.4% for the first, 72.7% for the second.

First: CN(C)CCCNc1nc(Nc2ccc(F)c(Cl)c2)ncc1-c1ccc(C(=O)N2CCCCC2)s1 [Example 369, (5-(2-(3-chloro-4-fluorophenylamino)-4-(3-(dimethylamino)propylamino)pyrimidin-5-yl)thiophen-2-yl) (piperidin-1-yl) methanone]
Second: CN(C)CCCNc1nc(Nc2ccc(F)c(Cl)c2)ncc1-c1ccc(C(=O)N(C)C)s1 [Example 366, 5-(2-(3-chloro-4-fluorophenylamino)-4-(3-(dimethylamino)propylamino)pyrimidin-5-yl)-N,N-dimethylthiophene-2-carboxamide]
The inhibition at 13 µM of the first is higher: 122% for the first, 80.5% for the second.

COc1ncc(-c2cnc(Nc3ccc(F)c(Cl)c3)nc2-n2ccc(C(F)(F)F)n2)cc1C(=O)NS(C)(=O)=O [Example 1024, 5-(2-(3-Chloro-4-fluorophenylamino)-4-(3-(trifluoromethyl)-1H-pyrazol-1-yl)pyrimidin-5-yl)-2-methoxy-N-(methylsulfonyl)nicotinamide] and COc1cc(Nc2ncc(-c3cncc(C(=O)O)c3)c(-n3ccc(C(F)(F)F)n3)n2)cc(S(C)(=O)=O)c1 [Example 672, 5-(2-{[3-methoxy-5-(methylsulfonyl)phenyl]amino}-4-[3-(trifluoromethyl)-1H-pyrazol-1-yl]pyrimidin-5-yl)pyridine-3-carboxylic acid] are the same in inhibition at 13 µM: 100% for the first, 100% for the second.

First: NC(=O)c1cncc(-c2cnc(Nc3ccc(F)c(Cl)c3)nc2-n2nc(C(F)F)cc2C(F)F)c1 [Example 539, 5-{4-[3,5-bis(difluoromnethyl)-1H-pyrazol-1-yl]-2-[(3-chloro-4-fluorophenyl)amino]pyrimidin-5-yl}pyridine-3-carboxamide]
Second: O=C(O)/C=C/c1cccc(-c2cnc(Nc3ccc(F)c(Cl)c3)nc2-n2cnc(C(F)(F)F)c2)c1 [Example 332, (2E)-3-(3-{2-[(3-chloro-4-fluorophenyl)amino]-4-[4-(trifluoromethyl)-1H-imidazol-1-yl]pyrimidin-5-yl}phenyl)prop-2-enoic acid]
The inhibition at 13 µM of the first is higher: 100% for the first, 62.1% for the second.

Going from Cc1ncsc1CCNc1nc(Nc2ccc(F)c(Cl)c2)ncc1-c1cccc(/C=C/C(=O)O)c1 [Example 269, (2E)-3-[3-(2-[(3-chloro-4-fluorophenyl)amino]-4-{[2-(4-methyl-1,3-thiazol-5-yl)ethyl]amino}pyrimidin-5-yl)phenyl]prop-2-enoic acid] to Cc1ccc(Nc2ncc(-c3cccc(/C=C/C(=O)O)c3)c(NCCCN(C)C)n2)cc1C#N [Example 338, (E)-3-(3-(2-(3-cyano-4-methylphenylamino)-4-(3-(dimethylamino)propylamino)pyrimidin-5-yl)phenyl)acrylic acid], the inhibition at 13 µM falls from 78% to 58.4%.

Work on O=C(O)C1CCCCN1c1cccc(-c2cnc(Nc3ccc(F)c(Cl)c3)nc2-n2ccc(C(F)(F)F)n2)c1 (centres unmarked) [Example 602, 1-(3-{2-[(3-chloro-4-fluorophenyl)amino]-4-[3-(trifluoromethyl)-1H-pyrazol-1-yl]pyrimidin-5-yl}phenyl)piperidine-2-carboxylic acid] yielded an inhibition at 13 µM of 100%.
